Publication PMC11990301, “Lipidated DAPEG Polymers as a Non-Toxic Transfection Agent—Influence of Fatty Acid Side Chain on Transfection Efficacy” (Molecules, 2025)

Assays:
[1] = Dynamic light scattering (DLS) particle size of compounds and compound-pmaxGFP complexes; format: physicochemical; details: 25 °C, n = 3; for hydrodynamic diameters, pMAXGFP (-) / PDI (polydispersity index), pMAXGFP (-): compound alone without plasmid, in water; for hydrodynamic diameters, pMAXGFP (-): 2.5 mg/mL as printed, 10 s runs, Litesizer DIA 500, mean ± SD; for PDI (polydispersity index), pMAXGFP (-) / PDI (polydispersity index), pMAXGFP (+) / hydrodynamic diameters, pMAXGFP (+): mean ± SD; for PDI (polydispersity index), pMAXGFP (+) / hydrodynamic diameters, pMAXGFP (+): compound-DNA plasmid complex, N/P 1.5/1, in water
Experimental: Dynamic light scattering (DLS) measurements were performed using the Litesizer DIA 500 (Anton Par, Ostfildern-Scharnhausen, Germany). The concentration of the compounds in water was 2.5 mg/mL, with the inclusion of a DNA plasmid to maintain a charge-to-ratio of 1.5/1 N/P. For system 1:1.5, the concentration of each compound was 0.61 µM; for 3:1–1.21 µM; for 9:1–3.64 µM. The DNA plasmid concentration remains constant and equal at 0.46 nM. The particle size series mode was used in a cuvette with a volume of […]. Each run was recorded at 25 °C for 10 s.

[2] = tested on: HEK-293T cell line (spheroids); assay: Transfection efficacy of GFP plasmid (pmaxGFP) in 3D model; format: cell-based; details: HEK-293T spheroids
Experimental: (§1) The HEK-293T cell line was cultured using both 2D and 3D techniques. The non-adherent method of forming spheroids was used. Cells (750 cells per well) were seeded in a 96-well U-shaped plate BIOFLOAT (Sarstedt, Nümbrecht, Germany). The HEK-293T cells were cultured at 37 °C in 5% CO2 in Dulbecco’s modified Eagle medium (DMEM; high glucose) supplemented with 10% fetal bovine serum (FBS) and 1% penicillin–streptomycin solution containing 100 units of penicillin and 100 µg/mL of streptomycin. After three days of culturing, the spheroids were formed and ready for further experiments.
Cells were cultured for 72 h under the conditions described above. Mixtures of the selected compounds and pmaxGFP plasmid in N/P ratios (charge peptidomimetic/charge pmaxGFP) of 1.5, 3:1, and 9:1 were incubated for 30 min and used immediately. An appropriate control with plasmid was employed. To each well with spheroids, 10 µL of the mixture described above was added in triplicate up to 90 µL of the full medium. The plate was then incubated at 37 °C with 5% CO2 for 5 h, washed (3 × medium), and cultured for another 72 h. After this process, the cells were inspected under a fluorescent microscope (Olympus IX51 fluorescence microscope (Olympus, Tokyo, Japan)). The molar concentration of particular components was equal to, for system 1:1.5, the concentration of each compound at 0.61 µM; for 3:1–1.21 µM; for 9:1–3.64 µM. The DNA plasmid concentration remains constant and equal at 0.46 nM.

[3] = Complex stability assessment by UV spectra (Nanodrop); format: physicochemical; details: Nanodrop UV-Vis, time points 0, 0.5, 1, 2.5 and 5 h, transfection buffer and concentrations (Figure S2)
Experimental: The analysis of all obtained complexes was conducted using a Nanodrop 2000c UV-Vis spectrophotometer (Thermo Scientific, Waltham, MA, USA) at designated time points from 0 to 5 h (0, 0.5, 1, 2.5, and 5). The concentration of the individual components (DNA and the compound) was used as a reference. The concentration of the complexes remained constant in relation to the transfection experiments.

[4] = tested on: spheroids of HEK-293T cells; assay: Viability in 3D model, CellTiter Glo 3D (ATP); format: cell-based; details: HEK-293T spheroids, 24 h incubation, tested 0, 1, 2, 5, 10, 20 and 50 µM, CellTiter Glo 3D luminescence; n = 3
Experimental: as §1
After culturing for 72 h, spheroids of HEK-293T cells were incubated with increasing amounts of the appropriate compounds (0, 1, 2, 5, 10, 20, and 50 µM) in the medium described above at 37 °C with 5% CO2. After 24 h, the plate was incubated at room temperature (RT) for 30 min, followed by the addition of 100 μL of CellTiter Glo 3D Cell Viability Assay reagent (Promega, Fitchburg, WI, USA). The plate was then covered from light and shaken for 30 min. Next, the contents of each well were transferred to a white flat bottom plate (Nunc A/S, Thermo Fisher, Odense, Denmark) and luminescence was read at 560 nm using the CLARIOstar (BMG Labtech, Ortenberg, Germany).

Substance | hydrodynamic diameters, pMAXGFP (-) [1] | PDI (polydispersity index), pMAXGFP (-) [1] | PDI (polydispersity index), pMAXGFP (+) [1] | hydrodynamic diameters, pMAXGFP (+) [1] | transfection efficacy ranking (GFP fluorescence), N/P ratio 1.5:1 ([2]; compound 0.61 µM, plasmid 0.46 nM, 5 h incubation then 72 h culture) | stability of compound and compound-DNA complex: change of UV spectra over time [3] | transfection efficacy ranking across all N/P series (1.5:1, 3:1, 9:1) ([2]; pmaxGFP) | concentration up to which viability is not suppressed compared to non-treated cells (3D spheroids, ATP) [4] | average fluorescence of spheroids (GFP production), N/P ratio 1.5:1 ([2]; compound 0.61 µM, plasmid 0.46 nM, 5 h incubation then 72 h culture, mean, n = 3) [arbitrary units] | average fluorescence of spheroids (GFP production), N/P ratio 3:1 ([2]; compound 1.21 µM, plasmid 0.46 nM, 5 h incubation then 72 h culture, mean, n = 3) | transfection efficacy ranking (GFP fluorescence), N/P ratio 9:1 ([2]; compound 3.64 µM, plasmid 0.46 nM, 5 h incubation then 72 h culture)
C6H11O-O2Oc-[Dap(GO2)]8-O2Oc-NH2 [compound 3] | 599,5 ± 80,8 nm | 23,5 ± 2,4% | 30,7 ± 2,6% | 3006,0 ± 133,9 nm |  |  |  |  |  |  | 
C4H7O-O2Oc-[Dap(GO2)]8-O2Oc-NH2 [compound 2] | 337,2 ± 28,6 nm | 27,8 ± 1,5% | 30,6 ± 2,5% | 4761,0 ± 190,1 nm |  |  |  |  |  |  | 
C10H19O-O2Oc-[Dap(GO2)]8-O2Oc-NH2 [compound 5] | 240,6 ± 36,9 nm | 24,9 ± 2,2% | 34,3 ± 4,2% | 4605,7 ± 90,9 nm |  |  |  |  |  |  | 
C16H31O-O2Oc-[Dap(GO2)]8-O2Oc-NH2 [compound 8] | 517,6 ± 63,3 nm | 24,8 ± 1,9% | 26,3 ± 2,9% | 308,7 ± 22,7 nm | greatest fluorescence |  |  |  |  |  | 
C14H27O-O2Oc-[Dap(GO2)]8-O2Oc-NH2 [compound 7] | 373,5 ± 59,7 nm | 25,6 ± 3,2% | 21,2 ± 2,4% | 135,0 ± 3,2 nm |  |  |  |  |  |  | 
C8H15O-O2Oc-[Dap(GO2)]8-O2Oc-NH2 [compound 4] | 508,9 ± 62,2 nm | 24,4 ± 2,3% | 29,4 ± 2,5% | 3446,7 ± 208,5 nm |  | do not show significant changes over time |  |  |  |  | 
C12H23O-O2Oc-[Dap(GO2)]8-O2Oc-NH2 [compound 6] | 337,4 ± 17,7 nm | 23,2 ± 2,8% | 24,2 ± 1,6% | 283,7 ± 5,9 nm |  |  |  |  |  |  | 
H-O2Oc-[Dap(GO2)]8-O2Oc-NH2 [1a, reference compound] | 329,1 ± 39,3 nm | 18,3 ± 1,5% | 29,9 ± 2,8% | 2235,3 ± 48,0 nm |  |  | lowest in each series |  |  |  | 
C2H3O-O2Oc-[Dap(GO2)]8-O2Oc-NH2 [compound 1] | 309,0 ± 56,2 nm | 25,5 ± 2,9% | 30,1 ± 1,7% | 5580,7 ± 321,2 nm |  |  |  | up to 5 µM | ~150 | around 200 arbitrary units | superior fluorescence
